Source: ChEMBL document CHEMBL5608195, “Identification and biological evaluation of fused tetrahydroisoquinoline derivatives as Wnt/β-catenin signaling inhibitors to suppress colorectal cancer” (Eur J Med Chem, 2024)
Activity calls are given as the source filed them. No cut-off for these calls is given here.

Assays:
HCT-116 [1] = experiment: Antiproliferative activity against human HCT-116 cells assessed as inhibition of DNA replication at 10 uM incubated for 22 hrs by fluorescence based microscopic analysis; format: functional, cell-based
HCT-116 [2] = experiment: Antiproliferative activity against human HCT-116 cells assessed as inhibition rate at 20 uM incubated for 24 hrs by MTT assay relative to control; format: functional
HCT-116 [3] = experiment: Antiproliferative activity against human HCT-116 cells incubated for 24 hrs by MTT assay; format: functional, cell-based; details: HCT-116, 24 h
RKO [4] = experiment: Antiproliferative activity against human RKO cells incubated for 24 hrs by MTT assay; format: functional, cell-based
[5] = Half life in male ICR (CD-1) mouse at 20 mg/kg, po measured upto 24 hrs by LC-MS/MS analysis; format: ADME, organism-based; details: in vivo
[6] = Cmax in male ICR (CD-1) mouse at 20 mg/kg, po measured upto 24 hrs by LC-MS/MS analysis; format: ADME, organism-based; details: in vivo
[7] = AUC (0 to infinity) in male ICR (CD-1) mouse at 20 mg/kg, po measured upto 24 hrs by LC-MS/MS analysis; format: ADME, organism-based; details: in vivo
[8] = Oral bioavailability in male ICR (CD-1) mouse at 20 mg/kg measured upto 24 hrs by LC-MS/MS analysis; format: ADME, organism-based; details: in vivo
[9] = Half life in male ICR (CD-1) mouse at 10 mg/kg, ip measured upto 24 hrs by LC-MS/MS analysis; format: ADME, organism-based; details: in vivo
[10] = AUC (0 to infinity) in male ICR (CD-1) mouse at 10 mg/kg, ip measured upto 24 hrs by LC-MS/MS analysis; format: ADME, organism-based; details: in vivo
[11] = AUC (0 to infinity) in male ICR (CD-1) mouse at 5 mg/kg, iv measured upto 24 hrs by LC-MS/MS analysis; format: ADME, organism-based; details: in vivo
RKO [12] = experiment: Antiproliferative activity against human RKO cells assessed as inhibition of DNA replication at 10 uM incubated for 22 hrs by fluorescence based microscopic analysis; format: functional, cell-based
HCT-116 [13] = experiment: Inhibition of colony formation in human HCT-116 cells incubated for 24 hrs by crystal violet staining based analysis; format: functional, cell-based; details: dose 6-10 µM
HCT-116 [14] = experiment: Induction of cell cycle arrest in human HCT-116 cells assessed as accumulation of cells at G2/M phase incubated for 24 hrs by PI staining based flow cytometry; format: functional; details: dose 6-10 µM
RKO [15] = experiment: Induction of cell cycle arrest in human RKO cells assessed as accumulation of cells at S phase incubated for 24 hrs by PI staining based flow cytometry; format: functional; details: dose 6-10 µM
HCT-116 [16] = experiment: Induction of cell cycle arrest in human HCT-116 cells assessed as downregulation of CDK1 protein level by Western blot analysis; format: functional, cell-based
RKO [17] = experiment: Induction of cell cycle arrest in human RKO cells assessed as downregulation of CDK1 protein level by Western blot analysis; format: functional, cell-based
RKO [18] = experiment: Induction of cell cycle arrest in human RKO cells assessed as downregulation of Cyclin A2 protein level by Western blot analysis; format: functional, cell-based
HCT-116 [19] = experiment: Inhibition of Wnt/beta-catenin signaling pathway in human HCT-116 cells assessed as induction of beta-catenin degradation pretreated with cycloheximide followed by compound addition by Western blot analysis; format: cell-based; details: time <= 6.0 hrs, TDE = time-dependent effect
[20] = Toxicity in Kunming mouse assessed as drug tolerance at 200 to 400 mg/kg, ip; format: organism-based; details: in vivo, dose 200-400 mg/kg
Homo sapiens [21] = species on record: Homo sapiens; experiment: Induction of human HSP90 stabilization assessed as protection against pronase E-mediated hydrolysis at 25 to 50 uM incubated for 1 hr by DART assay; details: dose 25-50 µM
Homo sapiens [22] = species on record: Homo sapiens; experiment: Binding affinity to recombinant N-terminal GST-tagged human HSP90 (1 to 224 residues) extracted from Escherichia coli BL21 (DE3) cells at 200 uM in presence of biotin probe 1 by pulldown analysis
[23] = Toxicity in male BALB/c mouse xenografted with human HCT-116 cells assessed as effect on serum ALT level at 10 to 40 mg/kg, ip by biochemical analysis; format: organism-based; details: in vivo, dose 10-40 mg/kg
[24] = Toxicity in male BALB/c mouse xenografted with human HCT-116 cells assessed as effect on serum ALP level at 10 to 40 mg/kg, ip by biochemical analysis; format: organism-based; details: in vivo, dose 10-40 mg/kg
[25] = Toxicity in male BALB/c mouse xenografted with human HCT-116 cells assessed as effect on serum AST level at 10 to 40 mg/kg, ip by biochemical analysis; format: organism-based; details: in vivo, dose 10-40 mg/kg
[26] = Toxicity in male BALB/c mouse xenografted with human HCT-116 cells assessed as histological change in heart at 10 to 40 mg/kg, ip by H and E staining based optical microscopic analysis; format: organism-based; details: in vivo, dose 10-40 mg/kg
[27] = Toxicity in male BALB/c mouse xenografted with human HCT-116 cells assessed as histological change in liver at 10 to 40 mg/kg, ip by H and E staining based optical microscopic analysis; format: organism-based; details: in vivo, dose 10-40 mg/kg
HCT-116 [28] = experiment: Antitumor activity against human HCT-116 cells xenografted in male BALB/c mouse assessed as induction of apoptosis by measuring increase cleaved-caspase-3 protein level at 10 to 40 mg/kg, ip by Immunohistochemical staining based analysis; format: functional, organism-based; details: dose 10-40 mg/kg
HCT-116 [29] = experiment: Antitumor activity against human HCT-116 cells xenografted in male BALB/c mouse assessed as decrease in Ki-67 protein level at 10 to 40 mg/kg, ip by Immunohistochemical staining based analysis; format: functional, organism-based; details: dose 10-40 mg/kg
RKO [30] = experiment: Inhibition of Hsp90/beta-catenin in human RKO cells at 6 to 10 uM incubated for 24 hrs by co-immunoprecipitation analysis; format: cell-based; details: dose 6-10 µM

IC50 (HCT-116 [3]): 8.31 µM | half-life [5]: 2.6 h | Cmax [6]: 832 ng/mL | AUC(0-inf) [7]: 2720 ng·h/mL | bioavailability [8]: 40% | half-life [9]: 3.55 h | AUC(0-inf) [10]: 2900 ng·h/mL | AUC(0-inf) [11]: 1500 ng·h/mL | Activity (Homo sapiens [21]): Active | Activity (Homo sapiens [22]): Active
SMILES: CC12c3ccc(Cl)cc3CCN1CCc1c2[nH]c2ccc(Cl)cc12 (stereo not given)
Activity (HCT-116 [1]): Active | inhibition at 20 µM (HCT-116 [2]): 89.2% | IC50 (RKO [4]): 7.97 µM | Activity (RKO [12]): Active | inhibition (HCT-116 [13]): Dose-Dependent Effect | Activity (HCT-116 [14]): Dose-Dependent Effect | Activity (RKO [15]): Dose-Dependent Effect | Activity (HCT-116 [16]): Dose-Dependent Effect | Activity (RKO [17]): Dose-Dependent Effect | Activity (RKO [18]): Dose-Dependent Effect | inhibition (HCT-116 [19]): Tde | Activity [20]: Non-Toxic | Activity [23]: Non-Toxic | Activity [24]: Non-Toxic | Activity [25]: Non-Toxic | Activity [26]: Non-Toxic | Activity [27]: Non-Toxic | Activity (HCT-116 [28]): Active | Activity (HCT-116 [29]): Active | inhibition (RKO [30]): Dose-Dependent Effect
